These results are taken from publication PMC7287031 (Pharmacology Research & Perspectives, 2020).

For orientation: fraction unbound means the share of the substance not bound to proteins or other matrix. The low end stands for extensive binding, the high end for weak binding. Broadly, the Tmax is the time from dosing to the highest level. As usually defined, the Cmax is the highest concentration seen after dosing.

Series [1] is described as follows: Human ADME study: quantitative metabolite profiling in urine and feces. The format is in vivo. As to conditions: pooled excreta n=6, from metabolite patterns (radio profiling). Here is the method:
Average pools across the six subjects were also created by combining equal percentages (of total urine and feces excreted over the time interval) of the individual subject pools. Urine pools were analyzed directly for metabolite profiling (column recovery of a representative sample was measured), whereas feces pools were subjected to extraction. Specifically, to each aliquot of feces homogenate, two volumes of acetonitrile were added. After centrifugation, the pellet was washed further with an additional two volumes of acetonitrile. […] All washes were combined, evaporated under nitrogen, and reconstituted with a solution of 15‐mM ammonium formate (pH 3.5). This feces extract reconstitute was analyzed for metabolite profiling. Combined extraction and reconstitution (overall recovery) and column recovery were measured. […] The HPLC column used was a Phenomenex Kinetex, C18, 250 × 4.6 mm, equipped with a pre‐column of the same type (2.1 × 4.6 mm), which was placed in a column oven at 40°C. […] The HPLC gradient was as follows: initial conditions were 5% mobile phase B for 1 minute, then increased to 20% at 10 minutes post injection where it was held (isocratic) up to 20 minutes. […] The post column flow was directed to the fraction collector operated in a time‐slice mode and containing 96‐well Lumaplates (Perkin Elmer). The plates were dried at room temperature and the radioactivity was measured using a microplate scintillation counter model TopCount NXT (Perkin Elmer) instrument (up to 3 × 100‐minute counting time). […] Metabolites were identified during the same injections using data generated by the high‐resolution mass spectrometer. The molecular ions and key fragments of each drug‐related component were determined. Key fragments for each metabolite were derived from their product ion mass spectra and were used to determine the metabolite structures. Where possible, structural assignments were supported by exact mass measurement, comparison with synthetic standards and/or Hydrogen/Deuterium (H/D) exchange LC‐MS(/MS).

Series [2] can be described thus: In vitro plasma protein binding (ultrafiltration), dog. The format is in vitro ADME. The note with it: 100 and 1000 ng/mL. Here is the method: Stock solutions were spiked into plasma to achieve the intended concentrations. After incubation for 1 hour at 37°C under constant gentle agitation, the spiked plasma samples (n = 3) were centrifuged (2000 g, 10 min, 37°C) in pre‐warmed Centrifree devices. Total radioactivity was determined in the ultrafiltrate (Cu, concentration of unbound compound) and in the sample introduced into the reservoir before ultrafiltration (Cp). The unbound (fu) and the bound (fb) fraction in plasma were calculated as follows: fu (%) = Cu/Cp × 100; fb (%) = 100‐Fu (%).

Series [3] can be described thus: Human ADME study: PK of ribociclib and LEQ803 in plasma and urine (validated bioanalytical assay). The format is in vivo. The note with it: for AUC(0-inf) / AUC(0-t) / Cmax / half-life: plasma, po, 600 mg. How it is done:
Subjects continued to fast for 4 hours after drug administration.
Plasma aliquots at each time point were subjected to protein precipitation with three volumes of acetonitrile containing 0.1% (v:v) formic acid, followed by dilution and analysis by liquid chromatography‐tandem mass spectrometry in selected reaction monitor‐positive ion mode using heated electrospray ionization as the ionization technique. For urine aliquots, six volumes of acetonitrile containing 0.1% (v:v) formic acid were added, followed by dilution and analysis in the same way as for plasma. Components were separated using a YMC‐Triart C18 (2.0 x 30 mm, 1.9 µm) column (YMC Co. Ltd.). […] Mobile phase A was 0.1% formic acid in H2O while mobile phase B was 0.1% formic acid in ACN:Isopropanol 8:2 v:v.

The target in another series is T1, CYP2J2 (Homo sapiens, UniProt P51589).
T1 construct: purchased BD Biosciences
T1 sequence (P51589 1-502): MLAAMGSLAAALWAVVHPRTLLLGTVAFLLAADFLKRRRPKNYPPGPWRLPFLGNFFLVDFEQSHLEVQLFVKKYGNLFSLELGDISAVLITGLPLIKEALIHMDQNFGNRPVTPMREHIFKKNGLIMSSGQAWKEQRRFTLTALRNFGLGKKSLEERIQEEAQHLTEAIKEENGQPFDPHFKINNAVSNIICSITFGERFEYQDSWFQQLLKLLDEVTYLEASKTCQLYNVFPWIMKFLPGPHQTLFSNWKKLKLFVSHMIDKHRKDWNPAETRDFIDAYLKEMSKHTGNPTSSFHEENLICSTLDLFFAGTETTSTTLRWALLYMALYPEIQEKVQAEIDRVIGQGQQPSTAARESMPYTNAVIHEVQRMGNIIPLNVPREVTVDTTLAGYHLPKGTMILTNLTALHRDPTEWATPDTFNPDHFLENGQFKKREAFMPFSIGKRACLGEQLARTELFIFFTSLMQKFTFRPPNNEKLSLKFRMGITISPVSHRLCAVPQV
Description: Enzyme kinetics with recombinant CYP2J2 and scaling to HLM. The format is in vitro ADME. Here is the method:
In vitro incubations were carried out in 100‐mM potassium phosphate buffer (pH 7.4) and 5‐mM MgCl2 with a total volume of 200 µL. Substrate and either human liver microsomes (HLM, BD Biosciences, mixed gender pool of n = 50) or recombinant human enzymes (BD Biosciences) were added and pre‐incubated for 3 minutes at 37°C. The reaction was started by addition of a fresh solution of NADPH (1 mmol/L final concentration). The samples were incubated at 37°C with agitation of 500 rpm. For incubations with CYP2A6, CYP2C9, CYP2C18, and CYP4A11, the phosphate buffer was replaced by TRIS buffer (100 mmol/L, pH 7.4) and for flavin‐containing monooxygenases (FMOs), a glycine buffer (50 mM, pH 9.5) was used.
The enzymatic reaction was stopped and the protein was precipitated by addition of an equal volume of methanol. After 30 min at −80°C, the samples were centrifuged at 30'000 x g for 15 min. The supernatant was withdrawn. Aliquots were analyzed by LSC and the supernatant was diluted with water to obtain a final solution containing less than 20% of the organic solvent. For samples of low substrate concentration, supernatants were evaporated to dryness under nitrogen, then re‐suspended in water containing less than 20% of methanol. Samples were analyzed by HPLC combined with radiodetection. […]

Series [4] is described as follows: Human ADME study: safety assessments. The format is in vivo. As to conditions: single oral 600 mg. The text has this: Safety analysis included monitoring and recording of all adverse events, laboratory tests (ophthalmologic exam, hematology, blood chemistry, and urinalysis), vital signs, electrocardiogram, and physical examination.

Like-named read-outs stand apart in the source and are kept apart here.

With `CN(C)C(=O)c1cc2cnc(Nc3ccc(N4CCNCC4)cn3)nc2n1C1CCCC1` [ribociclib, Ribociclib], the “Excretion (% of dose), Feces” value in series [1] is 17.3 % of dose. This molecule displayed an unbound share (fraction unbound) at 1 h in series [2] of 0.34 ± 0.01. In addition, the “Ribociclib in urine by validated bioanalytical assay” value in series [3] (human) was 6.75 % of the dose. Also, the “renal clearance lower than non-renal clearance” value in series [3] (human) was “more than 10 fold”. In series [3] (human plasma, bioanalytical assay, single oral 600 mg, N=6, read-out: tmax, median (range)), the time of peak concentration (Tmax) was found to be 1.75 h. Also, the AUC(0-inf) in series [3] (human, human plasma, bioanalytical assay, single oral 600 mg, N=6, read-out: AUCinf, arithmetic mean (CV %)) is 8700 ng·h/mL; in series [3] (human, human plasma, bioanalytical assay, single oral 600 mg, N=6, read-out: AUCinf, median), 8880 ng·h/mL. Also, the AUC(0-t) in series [3] (human, human plasma, bioanalytical assay, single oral 600 mg, N=6, read-out: AUClast, arithmetic mean (CV %)) was found to be 8600 ng·h/mL; in series [3] (human, human plasma, bioanalytical assay, single oral 600 mg, N=6, read-out: AUClast, median), 8780 ng·h/mL. The maximum concentration (Cmax) was 507 ng/mL in series [3] (human, human plasma, bioanalytical assay, single oral 600 mg, N=6, read-out: Cmax, arithmetic mean (CV %)) and 518 ng/mL in series [3] (human, human plasma, bioanalytical assay, single oral 600 mg, N=6, read-out: Cmax, median). Moreover, the half-life is 54.7 h in series [3] (human, human plasma, bioanalytical assay, single oral 600 mg, N=6, read-out: t½, arithmetic mean (CV %) (converted)) and 49.4 h in series [3] (human, human plasma, bioanalytical assay, single oral 600 mg, N=6, read-out: t½, median (converted)). Moreover, the “CL/F, median” value in series [3] (human, single oral 600 mg) was found to be 70.2 L/h. For the same molecule, the CL renal in series [3] (male, plasma and urine, human, single oral 600 mg, read-out: renal clearance, median (converted)) is 92.5 mL/min. The “fm,CYP” value on CYP2J2 (CYP2J2, share of total CYP-mediated metabolism in HLM) worked out at 0.8%. For the same molecule, the fumic on CYP2J2 (CYP2J2 incubation) is recorded as 0.86. In addition, in series [4] (2 subjects of six), the “abdominal discomfort, share of subjects” value was determined as 33.3%. In series [4], the “discontinuation due to an AE” value was “no subjects discontinued”. Also, the “serious adverse events (SAEs)” value in series [4] is “No serious adverse events”. In addition, in series [4], the “severity of all AEs” value was “grade 1”. For the same molecule, the “subjects with an AE suspected to be related to the study drug (headache)” value in series [4] is “one subject”. The “subjects who experienced at least one adverse event (AE)” value in series [4] (six healthy male subjects) is reported as “Five”.
